Results from paper PMC8069832, “New Amides and Phosphoramidates Containing Selenium: Studies on Their Cytotoxicity and Antioxidant Activities in Breast Cancer” (Antioxidants, 2021).
Read-outs that look alike come from different tables or passages of the source.

What was measured:
CCRF-CEM = experiment: cells; settings: Homo sapiens, 48 h; for activity at 10 µM: read-out: Cell growth (%) CCRF-CEM; for GI50: read-out: GI50 CCRF-CEM; for CC50: read-out: LC50 CCRF-CEM; for IC (TGI): read-out: TGI CCRF-CEM
HT-29 = experiment: cells; settings: Homo sapiens, HT-29, 48 h; for activity at 10 µM: read-out: Cell growth (%) HT-29; for GI50: read-out: GI50 HT-29; for CC50: read-out: LC50 HT-29; for IC (TGI): read-out: TGI HT-29
[1] = DPPH radical scavenging assay; settings: for DPPH activity inhibition: after 30 min
Method: The DPPH (1,1-diphenyl-2-picrylhydrazyl radical) assay measures the hydrogen donation ability of the antioxidant to convert the stable DPPH free radical into 1,1-diphenyl-2-(2,4,6-trinitrophenyl)-hydrazine. After radical reaction with the compounds, a decrease in the absorbance was detected at 517 nm, which is accompanied by a change of color from violet to light-yellow. The target compounds were dissolved in methanol to make 1 mg/mL stock solutions, which were diluted to five concentrations as test samples. Ascorbic acid was used as a standard, and the experiment was carried out on 96-well plates. The DPPH solution was prepared at a 100 µM concentration. For each test, 100 µL of DPPH solution was added to 100 µL of methanolic solution containing the tested derivatives, and the absorbance was determined at different time points. All the measurements were carried out in triplicate. Results were expressed as the percentage of the radical scavenged, calculated using the following formula:(1) % DPPH radical scavenging=Acontrol − Asample/Acontrol × 100 where Acontrol refers to the absorbance of the negative control, and Asample refers to the absorbance of the tested compounds. Results are expressed as a percentage of DPPH radical scavenged ± SEM.
. Ascorbic acid and Trolox were used as radical scavenger gold standards. […]. No correlation was found for either structure–radical scavenging activity or antitumor–radical scavenging activity, except for compound I.2f, one of the selected cytotoxic agents. To further confirm this antioxidant activity, three compounds (I.1e, I.1g and I.2i) were also evaluated as DPPH radical scavengers at a lower concentration of 0.003 mg/mL (Figure 3B).

MCF-7 [2] = experiment: cells; settings: Homo sapiens, MCF7, 48 h; for activity at 10 µM: read-out: Cell growth (%) MCF-7; for GI50: read-out: GI50 MCF-7, 48 h, average ± SEM; for CC50: read-out: LC50 MCF-7; for IC (TGI): read-out: TGI MCF-7
PC-3 = experiment: cells; type: cell-based; settings: Homo sapiens; for LC50: read-out: LC50 PC-3; for GI50: read-out: GI50 PC-3; for IC (TGI): read-out: TGI PC-3
Method: (§1) Cell lines were provided by the European Collection of Cell Cultures (ECACC) or by the American Type Culture Collection (ATCC). Seven cell lines were used: MCF-7 (breast adenocarnicoma), 184B5 (nonmalignant, mammary gland derived), CCRF-CEM (lymphoblastic leukemia), HT-29 (colon carcinoma), HTB-54 (lung carcinoma), BEAS-2B (nonmalignant, derived from the bronchial epithelium) and PC-3 (prostate carcinoma). MCF-7, CCRF-CEM, HT-29, HTB-54, BEAS-2B and PC-3 cell lines were grown in RPMI medium (Gibco) supplemented with 10% fetal bovine serum (FBS; Gibco), 100 units/mL penicillin and […] streptomycin (Gibco). 184B5 cells were grown in DMEM/F12 medium supplemented with 5% FBS, 1 × ITS (Lonza), 100 nM hydrocortisone (Aldich), 2 mM sodium pyruvate (Lonza), 20 ng/mL EGF (Sigma-Aldrich), 0.3 nM trans-retinoic acid (Sigma-Aldrich), 100 units/mL penicillin and […] streptomycin. Cells were maintained at 37 °C and 5% CO2.
(§2) The cytotoxic effect of each substance was tested by the MTT method. Each compound was initially dissolved in DMSO at a concentration of 0.01 M, and serial dilutions were prepared with nonsupplemented medium. The cytotoxic effect of each compound was tested at 50 and 10 µM as a first screening. […]
(§3) A total of 1 × 10^4 cells/well in 96-well plates were treated with increasing concentrations of the corresponding compounds for 48 h at 37 °C in a humidified atmosphere containing 5% CO2. Then, cells were incubated with 50 µL of MTT (2 mg/mL stock) for 4 h. The medium was then removed by aspiration, and the formazan crystals were dissolved in […] of DMSO. […] Data were obtained from at least 3 independent experiments performed in quadruplicate. The standard error of the means (SEM) for the cytotoxic parameters was calculated applying the standard deviation formula to the mean values of each parameter for the three independent experiments performed.
(§4) . Cisplatin was used as a standard drug. […]. […] The presence of electron-withdrawing groups (-NO2, -CF3, -Cl) in the phenyl ring favored the cytotoxic activity in the amides, but in the phosphoramidates, the best results were obtained for aliphatic chains methoxy (II.1b, II.2b) and ethoxy (II.1d, II.2d). […].

HTB-54 = experiment: cells; type: cell-based; settings: Homo sapiens; for CC50: read-out: LC50 HTB54; for GI50: read-out: GI50 HTB54; for IC (TGI): read-out: TGI HTB54
Method: as §1, §2, §3, §4

184B5 = experiment: MTT cytotoxicity in nonmalignant mammary gland derived cells; type: cell-based; settings: for GI50 / IC (TGI): Homo sapiens; for GI50: read-out: GI50 184B5; for IC (TGI): read-out: TGI 184B5; for Selectivity index (SI) = GI50 (184B5)/GI50 (MCF-7): breast
Method: as §1, §2, §3, §4
(§5) The lack of selectivity toward cancerous cells is one of the major issues during the discovery and development of new anticancer agents. Therefore, we evaluated the cytotoxic activity of our compounds against two cell lines derived from nonmalignant breast tissue (184B5) and no malignant bronchial epithelium (BEAS-2B) (Table 2). […].

[3] = as above; type: cell-based; settings: human
Method: as §1, §2, §3, §4, §5

BEAS-2B = experiment: MTT cytotoxicity in nonmalignant bronchial epithelium cells; type: cell-based; settings: for GI50 / IC (TGI): Homo sapiens, BEAS-2B, 48 h; for GI50: read-out: GI50 BEAS-2B; for IC (TGI): read-out: TGI BEAS-2B; for Selectivity index (SI) = GI50 (BEAS-2B)/GI50 (HTB-54): lung
Method: as §1, §2, §3, §4, §5

[4] = as above; type: cell-based; settings: human
Method: as §1, §2, §3, §4, §5

MCF-7 [5] = settings: read-out: GI50 MCF-7; 48 h, average ± SEM
[6] = 184B5, nonmalignant cells, 48 h
[7] = nonmalignant cells, 48 h, read-out: LC50 184B5
[8] = nonmalignant cells, 48 h, read-out: LC50 BEAS-2B

Structure (SMILES)	activity at 10 µM (CCRF-CEM) [%]	activity at 10 µM (HT-29) [%]	DPPH radical scavenging activity ([1]; 0.003 mg/mL)	DPPH activity inhibition ([1]; 0.03 mg/mL)	activity at 10 µM (MCF-7 [2]) [%]	GI50 (CCRF-CEM) [µM]	CC50 (CCRF-CEM) [µM]	IC (TGI) (CCRF-CEM) [µM]	GI50 (HT-29) [µM]	CC50 (HT-29) [µM]	IC (TGI) (HT-29) [µM]	LC50 (PC-3; PC-3, 48 h) [µM]	GI50 (PC-3; PC-3, 48 h, average ± SEM) [µM]	IC (TGI) (PC-3; PC-3, 48 h, average ± SEM) [µM]	CC50 (HTB-54; HTB-54, 48 h) [µM]	GI50 (HTB-54; HTB-54, 48 h, average ± SEM) [µM]	Selectivity index (SI) = GI50 (184B5)/GI50 (MCF-7) (184B5)	GI50 (MCF-7 [2]) [µM]	CC50 (MCF-7 [2]) [µM]	IC (TGI) (MCF-7 [2]) [µM]	also measured
N#C[Se]c1ccc(NC(=O)c2cccs2)cc1 [I.2i]	43.6	85.3	some moderate effect was observed	greater than 35%	74.5																DPPH radical scavenging activity ([1]; 0.03 mg/mL, 0-120 min): the most active radical scavenger
O=C(Nc1ccc([Se][Se]c2ccc(NC(=O)c3ccc([N+](=O)[O-])cc3)cc2)cc1)c1ccc([N+](=O)[O-])cc1 [I.1e]	35.4	49.2	some moderate effect was observed	greater than 35%	45.2	6.5 ± 1.5	67 ± 2	33.8 ± 2	16.8 ± 2.5	72.3 ± 1.8	44.6 ± 3.1	64.9 ± 1.1	2.5 ± 0.2	28.5 ± 1.9	72.8 ± 1.4	16.9 ± 3.1	1.14	7.4 ± 1	73.4 ± 0.1	40.1 ± 0.1	IC (TGI) (HTB-54; HTB-54, 48 h, average ± SEM): 44.8 ± 2.3 µM; GI50 (184B5; [6]): 7.76 µM; IC (TGI) (184B5; [6]): 33.8 µM; LC50 (50% lethal concentration) at 48 h [3]: 68.2 µM; GI50 (BEAS-2B; nonmalignant cells): 0.42 µM; IC (TGI) (BEAS-2B; nonmalignant cells): 4.8 µM; Selectivity index (SI) = GI50 (BEAS-2B)/GI50 (HTB-54) (BEAS-2B): 0.02; LC50 (50% lethal concentration) at 48 h [4]: 15.8 µM
COP(=O)(Nc1ccc([Se]C#N)cc1)OC [II.2b]	-67.4	-69.4			-5.82	1.6 ± 0.2	4.8 ± 0.3	3.2 ± 0.2	2 ± 0.3	5 ± 0.1	3.5 ± 0.1	49 ± 0.7			34.6 ± 0.4		7.56	< 1	9.1 ± 0.7	5 ± 1	GI50 (MCF-7 [5]): 0.6 ± 0.2 µM; GI50 (PC-3; PC-3, 48 h): 6.4 ± 0.2 µM; IC (TGI) (PC-3; PC-3, 48 h): 9.3 ± 0.1 µM; GI50 (HTB-54; HTB-54, 48 h): 6.2 ± 0.2 µM; IC (TGI) (HTB-54; HTB-54, 48 h): 8.6 ± 0.4 µM; GI50 (184B5; 184B5, 48 h): 5.44 µM; IC (TGI) (184B5; 184B5, 48 h): 6.94 µM; CC50 at 48 h [3, 7]: 8.44 µM; GI50 (BEAS-2B): 5.22 µM; IC (TGI) (BEAS-2B): 6.8 µM; Selectivity index (SI) = GI50 (BEAS-2B)/GI50 (HTB-54) (BEAS-2B): 0.84; LC50 (50% lethal concentration) at 48 h [4, 8]: 8.38 µM
CSc1ccc(C(=O)Nc2ccc([Se][Se]c3ccc(NC(=O)c4ccc(SC)cc4)cc3)cc2)cc1 [I.1n]	72.1	50.6		greater than 35%	64																
CCOP(=O)(Nc1ccc([Se][Se]c2ccc(NP(=O)(OCC)OCC)cc2)cc1)OCC [II.1d]	-86.7	-69.8			-57.5	0.4 ± 0.2	3.4 ± 0.2	1.7 ± 0.2	1.7 ± 0.1	4.3 ± 0.1	3 ± 0.1		6.4 ± 0.2	8.6 ± 0.2		5.9 ± 0.3	2.38	2.3 ± 0.2	8.8 ± 0.8	4.2 ± 0.3	LC50 (PC-3; PC-3, 48 h, average ± SEM): 35.1 ± 4.9 µM; CC50 (HTB-54; HTB-54, 48 h, average ± SEM): 9.4 ± 0.1 µM; IC (TGI) (HTB-54; HTB-54, 48 h, average ± SEM): 7.7 ± 0.2 µM; GI50 (184B5; [6]): 5.45 µM; IC (TGI) (184B5; [6]): 7.01 µM; CC50 [3, 7]: 8.58 µM; GI50 (BEAS-2B; nonmalignant cells): 5.43 µM; IC (TGI) (BEAS-2B; nonmalignant cells): 6.98 µM; Selectivity index (SI) = GI50 (BEAS-2B)/GI50 (HTB-54) (BEAS-2B): 0.92; LC50 (50% lethal concentration) [4, 8]: 8.54 µM
Cc1ccc(C(=O)Nc2ccc([Se][Se]c3ccc(NC(=O)c4ccc(C)cc4)cc3)cc2)cc1 [I.1g]	105	109	some moderate effect was observed	greater than 35%	57.5																
O=C(Nc1ccc([Se][Se]c2ccc(NC(=O)c3ccc(Cl)cc3)cc2)cc1)c1ccc(Cl)cc1 [I.1b]	45.5	-10.7			19.8	9 ± 1.6	> 100	72.6 ± 1.1	3 ± 1.8	> 100	7.7 ± 0.6	> 100	7.7 ± 2.2	> 100	> 100	> 100	1.57	4.6 ± 0.5	> 100	> 100	IC (TGI) (HTB-54; HTB-54, 48 h, average ± SEM): > 100 µM; GI50 (184B5; [6]): 7.08 µM; IC (TGI) (184B5; [6]): > 100 µM; LC50 (50% lethal concentration) at 48 h [3]: > 100 µM; GI50 (BEAS-2B; nonmalignant cells): 1.11 µM; IC (TGI) (BEAS-2B; nonmalignant cells): 42.8 µM; LC50 (50% lethal concentration) at 48 h [4]: > 100 µM
N#C[Se]c1ccc(NC(=O)c2ccno2)cc1 [I.2j]	48.4	90.8		greater than 35%	91																
